# Read-outs that look alike come from different tables or passages of the source. Non-standard residues stand in square brackets, D forms with d. Residues, ends and D or L forms follow the SMILES beside them. Ac6c = NC1(C(=O)O)CCCCC1; Orn = NCCC[C@H](N)C(=O)O
# Tests used:
# [1] = system: C. neoformans strains 1841, H99, and KN99α; test: Broth microdilution assay (MIC); type: cell-based, Cryptococcus neoformans
# [2] = system: C. neoformans 1841 (serotype D)
# [3] = system: C. neoformans H99 (serotype A)
# [4] = system: C. neoformans KN99α (serotype A, mating type MATα)
# [5] = broth microdilution, 50% SAB in phosphate buffer pH 7.5, 5 × 10^4 CFU/mL, 30°C, read after 24 h, mean of six replicates (n = 6)
# [6] = broth microdilution, 50% SAB in phosphate buffer pH 7.5, 5 × 10^4 CFU/mL, 30°C, read after 48 h, n = 6
# [7] = broth microdilution, 50% SAB in phosphate buffer, 30°C, read after 24 h, n = 6
# [8] = broth microdilution, 50% SAB in phosphate buffer, 30°C, read after 48 h, n = 6
# [9] = 1841 (serotype D, 24 h, pH 7.5)
# [10] = 1841 (serotype D, 48 h, pH 7.5)
# [11] = KN99α (serotype A, mating type MATα, 24 h)
# [12] = KN99α (serotype A, mating type MATα, 48 h)
# [13] = strains 1841, H99, and KN99α, 24 h
Compound,"MIC (μmol/L) 1841 24 h [2, 5] [µmol/L]","MIC (μmol/L) 1841 48 h [2, 6] [µmol/L]","MIC (μmol/L) 1841 24 h [2, 9] [µmol/L]","MIC (μmol/L) 1841 48 h [2, 10] [µmol/L]","MIC (μmol/L) H99 24 h ([3]; H99 (serotype A, 24 h)) [µmol/L]","MIC (μmol/L) H99 48 h ([3]; H99 (serotype A, 48 h)) [µmol/L]","MIC (μmol/L) KN99α 24 h [4, 11] [µmol/L]","MIC (μmol/L) KN99α 48 h [4, 12] [µmol/L]",also measured
"CC[C@H](C)[C@H](NC(=O)[C@H](CCCCN)NC(=O)[C@H](CCC(=O)O)NC(=O)CNC(=O)CNC(=O)[C@H](CCCCN)NC(=O)[C@H](CCCNC(=N)N)NC(=O)[C@H](CC(C)C)NC(=O)[C@H](CC(C)C)NC(=O)CN)C(=O)NCC(=O)N[C@@H](CCC(=O)O)C(=O)N[C@@H](CCCCN)C(=O)N[C@@H](CC(C)C)C(=O)N[C@@H](CCCCN)C(=O)N[C@@H](CCCCN)C(=O)N[C@H](C(=O)NCC(=O)N[C@@H](CCC(N)=O)C(=O)N[C@@H](CCCCN)C(=O)N[C@H](C(=O)N[C@@H](CCCCN)C(=O)N[C@@H](CC(N)=O)C(=O)N[C@@H](Cc1ccccc1)C(=O)N[C@@H](Cc1ccccc1)C(=O)N[C@@H](CCC(N)=O)C(=O)N[C@@H](CCCCN)C(=O)N[C@@H](CC(C)C)C(=O)N[C@H](C(=O)N1CCC[C@H]1C(=O)N[C@@H](CCC(N)=O)C(=O)N1CCC[C@H]1C(=O)N[C@@H](CCC(=O)O)C(=O)N[C@@H](CCC(N)=O)C(=O)O)C(C)C)[C@@H](C)CC)[C@@H](C)CC [CRAMP, reference compound] (H-GLLRKGGEKIGEKLKKIGQKIKNFFQKLVPQPEQ-OH)",–,–,2.1,2.1,2.1,2.1,2.1,2.1,MIC [1]: 2.1 µM
"CC[C@H](C)[C@H](NC(=O)[C@@H]1CCCN1C(=O)[C@H](CCCNC(=N)N)NC(=O)[C@@H]1CCCN1C(=O)[C@@H]1CCCN1C(=O)[C@@H](NC(=O)[C@@H]1CCCN1C(=O)[C@H](CCCNC(=N)N)NC(=O)[C@@H]1CCCN1C(=O)[C@H](CC(C)C)NC(=O)[C@H](Cc1ccc(O)cc1)NC(=O)[C@H](CO)NC(=O)CNC(=O)[C@H](CCCCN)NC(=O)[C@H](CC(=O)O)NC(=O)[C@@H](N)C(C)C)[C@@H](C)O)C(=O)N[C@@H](Cc1ccc(O)cc1)C(=O)N[C@@H](CC(N)=O)C(=O)N[C@@H](CCCNC(=N)N)C(=O)N[C@@H](CC(N)=O)C(=O)O [Pyrrhocoricin, reference compound] (H-VDKGSYLPRPTPPRPIYNRN-OH)",>55,>55,–,–,–,–,–,–,"MIC [1]: > 55 µM; MIC (μmol/L) H99 24 h [3, 7]: >55 µmol/L; MIC (μmol/L) H99 48 h [3, 8]: >55 µmol/L; MIC (μmol/L) KN99α 24 h [4, 7]: >55 µmol/L; MIC (μmol/L) KN99α 48 h [4, 8]: >55 µmol/L"
CC[C@H](C)[C@H](NC(=O)[C@@H](CCCNC(=N)N)NC(=O)[C@H](CCCNC(=N)N)NC(=O)[C@@H]1CCCN1C(=O)[C@@H]1CCCN1C(=O)[C@H](CCCNC(=N)N)NC(=O)[C@@H]1CCCN1C(=O)[C@H](CCCNC(=N)N)NC(=O)[C@@H]1CCCN1C(=O)[C@H](CC(C)C)NC(=O)[C@H](Cc1ccc(O)cc1)NC(=O)[C@@H]1CCCN1C(=O)[C@@H]1CCCN1C(=O)[C@H](CCCCN)NC(=O)[C@H](CC(=O)O)NC(=O)[C@@H](N)C(C)C)C(=O)N[C@@H](Cc1ccc(O)cc1)C(=O)N[C@@H](CC(N)=O)C(=O)N[C@H](CCCNC(=N)N)C(N)=O [Onc112] (H-VDKPPYLPRPRPPR[dR]IYN[dR]-NH2),–,–,3.3,6.7,3.3 to 6.7,6.7,3.3 to 6.7,6.7 to 13,"MIC [1, 13]: 1.6 to 6.7 µM; MIC (mg/L) H99 24 h ([3]; H99 (serotype A, 24 h)): 8 to 16 mg/L; MIC (mg/L) KN99α 24 h [4, 11]: 8 to 16 mg/L; MIC (mg/L) KN99α 48 h [4, 12]: 16 to 32 mg/L"
CC[C@H](C)[C@H](NC(=O)[C@H](CCCN)NC(=O)[C@@H](NC(=O)[C@@H](N)CCCN)[C@@H](C)CC)C(=O)N[C@@H](CCCN)C(=O)N[C@@H](CCCNC(=N)N)C(=O)N1CCC[C@H]1C(=O)N[C@H](C(=O)N[C@@H](Cc1ccc(O)cc1)C(=O)N[C@@H](CCCN)C(=O)N1CCC[C@H]1C(=O)N[C@@H](CCCNC(=N)N)C(=O)N1CCC[C@H]1C(=O)N[C@@H](CCCNC(=N)N)C(=O)N1CCC[C@H]1C(=O)N1CCC[C@H]1C(=O)N[C@@H](Cc1c[nH]cn1)C(=O)N1CCC[C@H]1C(=O)N[C@@H](CCCNC(=N)N)C(=O)N[C@@H](CCCNC(=N)N)C(=O)O)C(C)C [Api822] (H-[Orn]I[Orn]I[Orn]RPVY[Orn]PRPRPPHPRR-OH),–,–,3.2,3.2,3.2,3.2,3.2,3.2,"MIC [1, 13]: 1.6 to 6.7 µM"
"CC[C@H](C)[C@H](NC(=O)[C@H](Cc1ccc(O)cc1)NC(=O)[C@@H](NC(=O)[C@@H]1CCCN1C(=O)[C@H](CCCNC(=N)N)NC(=O)[C@H](CC(N)=O)NC(=O)[C@H](CC(N)=O)NC(=O)CN)C(C)C)C(=O)N1CCC[C@H]1C(=O)N[C@@H](CCC(N)=O)C(=O)N1CCC[C@H]1C(=O)N[C@@H](CCCNC(=N)N)C(=O)N1CCC[C@H]1C(=O)N1CCC[C@H]1C(=O)N[C@@H](Cc1c[nH]cn1)C(=O)N1CCC[C@H]1C(=O)N[C@@H](CCCNC(=N)N)C(=O)N[C@@H](CC(C)C)C(=O)O [Apidaecin 1b, reference compound] (H-GNNRPVYIPQPRPPHPRL-OH)",–,–,> 61,> 61,> 61,> 61,> 61,> 61,"MIC [1, 13]: > 61 µM"
CC[C@H](C)[C@H](NC(=O)[C@H](CCCNC(=N)N)NC(=O)[C@H](CC(C)C)NC(=O)[C@@H]1CCCN1C(=O)CN)C(=O)N[C@@H](Cc1ccc(O)cc1)C(=O)N[C@H](C(=O)N1CCC[C@H]1C(=O)N[C@@H](Cc1c[nH]cn1)C(=O)N1CCC[C@H]1C(=O)N1CCC[C@H]1C(=O)N1CCC[C@H]1C(=O)N[C@@H](CCCNC(=N)N)C(=O)N1CCC[C@H]1C(=O)N[C@@H](CC(N)=O)C(=O)N[C@@H](CCC(N)=O)C(=O)N[C@@H](CC(N)=O)C(=O)N[C@@H](CCCNC(=N)N)C(=O)O)C(C)C [Apidaecin 1b scr] (H-GPLRIYVPHPPPRPNQNR-OH),–,–,> 61,> 61,> 61,> 61,> 61,> 61,–
CC[C@H](C)[C@H](NC(=O)[C@H](Cc1ccc(O)cc1)NC(=O)[C@H](CC(N)=O)NC(=O)[C@@H](N)CCCN)C(=O)N[C@@H](CCCN)C(=O)N[C@@H](CCCNC(=N)N)C(=O)N1CCC[C@H]1C(=O)N1CCC[C@H]1C(=O)N[C@@H](CCCNC(=N)N)C(=O)N1CCC[C@H]1C(=O)N[C@@H](CCCNC(=N)N)C(=O)N1CCC[C@H]1C(=O)N[C@@H](CC(C)C)C(=O)N[C@@H](Cc1ccc(O)cc1)C(=O)N1CCC[C@H]1C(=O)N1CCC[C@H]1C(=O)N[C@@H](CCCCN)C(=O)N[C@@H](CC(=O)O)C(=O)N[C@H](C(N)=O)C(C)C [Onc72 rev] (H-[Orn]NYI[Orn]RPPRPRPLYPPKDV-NH2),–,–,28,56,28,56,28,56,–
CC(C)C[C@H](NC(=O)[C@@H]1CCCN1C(=O)[C@H](CCCNC(=N)N)NC(=O)[C@@H]1CCCN1C(=O)[C@H](CCCNC(=N)N)NC(=O)[C@@H]1CCCN1C(=O)[C@@H]1CCCN1C(=O)[C@H](CCCNC(=N)N)NC(=O)[C@@H]1CCCN1C(=O)[C@@H](NC(=O)[C@@H](N)CCCNC(=N)N)C(C)C)C(=O)N[C@@H](Cc1ccc(O)cc1)C(=O)N1CCC[C@H]1C(=O)N[C@@H](CCCNC(=N)N)C(=O)N1CCC[C@H]1C(=O)N[C@@H](CCCCN)C(=O)N[C@@H](CC(=O)O)C(=O)N1CCC[C@H]1C(=O)N[C@@H](CCCNC(=N)N)C(=O)NC1(C(N)=O)CCCCC1 [Chex1Arg20 rev] (H-RVPRPPRPRPLYPRPKDPR[Ac6c]-NH2; N-terminus assumed),–,–,3.2,3.2,3.2,3.2 to 6.5,3.2,6.5,"MIC (mg/L) H99 48 h ([3]; H99 (serotype A, 48 h)): 8 to 16 mg/L"

# Now from value to compound, other results behind:
"MIC (μmol/L) 1841 24 h [2, 5] [µmol/L]","MIC (μmol/L) 1841 48 h [2, 6] [µmol/L]",Compound,"MIC (μmol/L) 1841 24 h [2, 9] [µmol/L]","MIC (μmol/L) 1841 48 h [2, 10] [µmol/L]","MIC (μmol/L) H99 24 h ([3]; H99 (serotype A, 24 h)) [µmol/L]","MIC (μmol/L) H99 48 h ([3]; H99 (serotype A, 48 h)) [µmol/L]","MIC (μmol/L) KN99α 24 h [4, 11] [µmol/L]","MIC (μmol/L) KN99α 48 h [4, 12] [µmol/L]",also measured
1.1,1.1,"RRIRPRPPRLPRPRPRPLPFPRPGPRPIPRPLPFPRPGPRPIPRPLPFPRPGPRPIPRP-OH [Bac7 1–60, reference compound]",–,–,–,–,–,–,"MIC [1]: 1.1 µM; MIC (μmol/L) H99 24 h [3, 7]: 1.1 µmol/L; MIC (μmol/L) H99 48 h [3, 8]: 1.1 µmol/L; MIC (μmol/L) KN99α 24 h [4, 7]: 1.1 µmol/L; MIC (mg/L) KN99α 48 h [4, 8]: 8 to 16 mg/L; MIC (μmol/L) KN99α 48 h [4, 8]: 1.1 to 2.2 µmol/L"
3.1,3.1,gu-OIOIORPVYOPRPRPPHPRR-OH [Api813],–,–,–,–,–,–,"MIC (mg/L) 1841 24 h [2, 7]: 8 mg/L; MIC (mg/L) 1841 48 h [2, 8]: 8 mg/L; MIC (mg/L) H99 24 h [3, 7]: 4 mg/L; MIC (mg/L) H99 48 h [3, 8]: 4 to 8 mg/L; MIC (mg/L) KN99α 24 h [4, 7]: 4 to 8 mg/L; MIC (mg/L) KN99α 48 h [4, 8]: 8 mg/L"
7.0,7.0,gu-LRPHPPRPRPIYVPRNNO-NH2 [Api88 rev],–,–,–,–,–,–,"MIC (μmol/L) H99 24 h [3, 7]: 7.0 µmol/L; MIC (μmol/L) H99 48 h [3, 8]: 14 µmol/L; MIC (μmol/L) KN99α 24 h [4, 7]: 7.0 µmol/L; MIC (μmol/L) KN99α 48 h [4, 8]: 14 µmol/L"

# Reference: paper PMC10800876, “Evaluation of proline-rich antimicrobial peptides as potential lead structures for novel antimycotics against Cryptococcus neoformans” (Frontiers in Microbiology, 2024)
